From ChEMBL document CHEMBL5385936, “Design, synthesis, α-amylase and glucose diffusion inhibition, and molecular docking studies of new indenopyrazolones bearing benzothiazole derivatives” (Bioorg Med Chem Lett, 2024)

What was measured:
[1] = Inhibition of Aspergillus oryzae alpha-amylase in presence of 1% starch incubated for 10 mins
[2] = In vitro antidiabetic activity measured by appearance of glucose in external solution using dialysis bag and D-glucose incubated for 1 to 27 hrs by 3,5-dinitrosalicylic acid based glucose diffusion inhibition assay; assay type: functional; details: time 1-27 hrs

Row | SMILES | IC50 [1] [µg/mL] | Activity [2] [µg/mL]
1 | Cc1cccc2sc(-n3nc(-c4ccc(F)cc4)c4c3-c3ccccc3C4=O)nc12 | 159.95 | 13.2
2 | Cc1cccc2sc(-n3nc(-c4ccc(Cl)cc4)c4c3-c3ccccc3C4=O)nc12 | 92.99 | 9.5
3 | Cc1cccc2sc(-n3nc(-c4ccc(Br)cc4)c4c3-c3ccccc3C4=O)nc12 | 132.41 | 17.2
4 | Cc1cccc(-c2nn(-c3nc4ccc(F)cc4s3)c3c2C(=O)c2ccccc2-3)c1 | 95.41 | 13.5
5 | O=C1c2ccccc2-c2c1c(-c1cccc(Br)c1)nn2-c1nc2ccc(F)cc2s1 | 192.95 | 11.9
6 | COc1cccc(-c2nn(-c3nc4ccc(F)cc4s3)c3c2C(=O)c2ccccc2-3)c1 | 162.5 | 10.9
7 | Cc1cccc(-c2nn(-c3nc4c(C)cccc4s3)c3c2C(=O)c2ccccc2-3)c1 | 198.33 | 8.25
8 | COc1ccc(-c2nn(-c3nc4c(C)cccc4s3)c3c2C(=O)c2ccccc2-3)cc1 | 161.92 | 12.7
9 | COc1cccc(-c2nn(-c3nc4c(C)cccc4s3)c3c2C(=O)c2ccccc2-3)c1 | 200.95 | 10.8
10 | Cc1cccc2sc(-n3nc(-c4cccc(Br)c4)c4c3-c3ccccc3C4=O)nc12 | 183.43 | 6.29
11 | O=C1c2ccccc2-c2c1c(-c1cccc(Cl)c1)nn2-c1nc2ccc(F)cc2s1 | 190.98 | 18
12 | Cc1ccc(-c2nn(-c3nc4ccc(F)cc4s3)c3c2C(=O)c2ccccc2-3)cc1 | 135.14 | 6.8
13 | O=C1c2ccccc2-c2c1c(-c1ccc(F)cc1)nn2-c1nc2ccc(F)cc2s1 | 144.106 | 11.5
14 | Cc1ccc(-c2nn(-c3nc4c(C)cccc4s3)c3c2C(=O)c2ccccc2-3)cc1 | 165.59 | 7.25
15 | O=C1c2ccccc2-c2c1c(-c1ccc(Cl)cc1)nn2-c1nc2ccc(F)cc2s1 | 189.69 | 17.6
16 | Cc1cccc2sc(-n3nc(-c4ccccc4)c4c3-c3ccccc3C4=O)nc12 | 167.48 | 6.68
17 | O=C1c2ccccc2-c2c1c(-c1ccccc1)nn2-c1nc2ccc(F)cc2s1 | 98.42 | 2.63
18 | Cc1cccc2sc(-n3nc(-c4cccc(Cl)c4)c4c3-c3ccccc3C4=O)nc12 | 171.2 | 2.25
19 | C[C@H]1O[C@H](O[C@H]2[C@H](O)[C@@H](O)[C@@H](O[C@H]3[C@H](O)[C@@H](O)C(O)O[C@@H]3CO)O[C@@H]2CO)[C@H](O)[C@@H](O)[C@@H]1N[C@H]1C=C(CO)[C@@H](O)[C@H](O)[C@H]1O (some centres not stated) [ACARBOSE] | 103.6 | 2.76
20 | O=C1c2ccccc2-c2c1c(-c1ccc(Br)cc1)nn2-c1nc2ccc(F)cc2s1 | 196.85 | 12.7
21 | COc1ccc(-c2nn(-c3nc4ccc(F)cc4s3)c3c2C(=O)c2ccccc2-3)cc1 | 104.74 | 4.26
